Test results as given in patent publication US10597388B2, “Pyridazinone herbicides” (FMC CORPORATION, priority 2014, dated 2020).

Legend:
Experiment in all cases: Test E greenhouse herbicide test, pre- and postemergence
Assay type in all cases: in vivo
[1] = tested on: momingglory (Ipomoea coccinea); settings: Preemergence
In short: (§1)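 Seedlings reaching 2–18 cm (1- to 4-leaf stage) received foliar treatment, while seeds in silt loam received a soil surface spray; the vehicle in each case was a non-phytotoxic solvent mixture including surfactant. Visual scoring versus controls followed 14–21 d later on a 0–100 scale.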

[2] = tested on: foxtail, green (green foxtail, Setaria viridis); settings: Preemergence
In short: as §1

soybean (Glycine max) = tested on: soybean (Glycine max)
In short: as §1

[3] = tested on: barnyardgrass (Echinochloa crus-galli)
In short: as §1

[4] = tested on: pigweed, palmer (palmer pigweed, Amaranthus palmeri)
In short: as §1

[5] = tested on: johnsongrass (Sorghum halepense); settings: Preemergence
In short: as §1

corn (Zea mays) = tested on: corn (Zea mays)
In short: as §1

[6] = tested on: lambsquarters (Chenopodium album); settings: Preemergence
In short: as §1

[7] = tested on: Italian ryegrass (Lolium multiflorum)
In short: as §1

[8] = tested on: nutsedge, yellow (yellow nutsedge, Cyperus esculentus); settings: Preemergence
In short: as §1

[9] = tested on: dayflower (Virginia (VA) dayflower, Commelina virginica)
In short: as §1

[10] = tested on: velvetleaf (Abutilon theophrasti); settings: Preemergence
In short: as §1

[11] = tested on: arrowleaf sida (Sida rhombifolia)
In short: as §1

[12] = tested on: wild poinsettia (Euphorbia heterophylla); settings: Postemergence
In short: as §1

[13] = 62 g ai/ha, scale 0 to 100 (0 no effect, 100 complete control)
[14] = 125 g ai/ha, scale 0 to 100 (0 no effect, 100 complete control)
[15] = 31 g ai/ha, scale 0 to 100, 0 no effect, 100 complete control
[16] = 250 g ai/ha, visual, scale 0 no effect to 100 complete control
[17] = 125 g ai/ha, visual, scale 0 no effect to 100 complete control
[18] = 62 g ai/ha, Postemergence, scale 0 to 100 (0 no effect, 100 complete control)
[19] = 62 g ai/ha, Preemergence, scale 0 to 100 (0 no effect, 100 complete control)
[20] = 125 g ai/ha, Postemergence, scale 0 to 100 (0 no effect, 100 complete control)
[21] = 125 g ai/ha, Preemergence, scale 0 to 100 (0 no effect, 100 complete control)
[22] = 250 g ai/ha, Postemergence, scale 0 to 100 (0 no effect, 100 complete control)
[23] = Postemergence, 31 g ai/ha, visual, scale 0 no effect to 100 complete control
[24] = Preemergence, 31 g ai/ha, scale 0 to 100, 0 no effect, 100 complete control
[25] = Preemergence, 250 g ai/ha, visual, scale 0 no effect to 100 complete control
[26] = Preemergence, 125 g ai/ha, visual, scale 0 no effect to 100 complete control
[27] = Postemergence, 16 g ai/ha, visual, scale 0 no effect to 100 complete control
[28] = 31 g ai/ha, visual, scale 0 no effect to 100 complete control

Cc1cc2ccccc2c(-c2c(O)c(C)nn(C)c2=O)c1C [Compound 34]
Plant response rating, Morningglory [1, 13]: 25 | Plant response rating, Morningglory [1, 14]: 35 | Plant response rating, Morningglory [1, 15]: 0 | Plant response rating, Morningglory [1, 16]: 90 | Plant response rating, Foxtail, Green [2, 13]: 0 | Plant response rating, Foxtail, Green [2, 15]: 0 | Plant response rating, Foxtail, Green [2, 17]: 25 | Plant response rating, Foxtail, Green [2, 16]: 65 | Plant response rating, Soybean (soybean (Glycine max); [18]): 40 | Plant response rating, Soybean (soybean (Glycine max); [19]): 35 | Plant response rating, Soybean (soybean (Glycine max); [20]): 70 | Plant response rating, Soybean (soybean (Glycine max); [21]): 15 | Plant response rating, Soybean (soybean (Glycine max); [22]): 60 | Plant response rating, Soybean (soybean (Glycine max); [23]): 35 | Plant response rating, Soybean (soybean (Glycine max); [24]): 0 | Plant response rating, Soybean (soybean (Glycine max); [25]): 0 | Plant response rating, Barnyardgrass [3, 18]: 40 | Plant response rating, Barnyardgrass [3, 19]: 0 | Plant response rating, Barnyardgrass [3, 20]: 40 | Plant response rating, Barnyardgrass [3, 22]: 40 | Plant response rating, Barnyardgrass [3, 23]: 30 | Plant response rating, Barnyardgrass [3, 24]: 0 | Plant response rating, Barnyardgrass [3, 26]: 35 | Plant response rating, Barnyardgrass [3, 25]: 65 | Plant response rating, Pigweed, Palmer [4, 18]: 80 | Plant response rating, Pigweed, Palmer [4, 19]: 0 | Plant response rating, Pigweed, Palmer [4, 20]: 65 | Plant response rating, Pigweed, Palmer [4, 21]: 90 | Plant response rating, Pigweed, Palmer [4, 22]: 75 | Plant response rating, Pigweed, Palmer [4, 23]: 50 | Plant response rating, Pigweed, Palmer [4, 24]: 0 | Plant response rating, Pigweed, Palmer [4, 25]: 90 | Plant response rating, Johnsongrass [5, 13]: 0 | Plant response rating, Johnsongrass [5, 15]: 0 | Plant response rating, Johnsongrass [5, 17]: 0 | Plant response rating, Johnsongrass [5, 16]: 0 | Plant response rating, Corn (corn (Zea mays); [18]): 0 | Plant response rating, Corn (corn (Zea mays); [19]): 0 | Plant response rating, Corn (corn (Zea mays); [20]): 0 | Plant response rating, Corn (corn (Zea mays); [22]): 5 | Plant response rating, Corn (corn (Zea mays); [23]): 0 | Plant response rating, Corn (corn (Zea mays); [24]): 0 | Plant response rating, Corn (corn (Zea mays); [26]): 0 | Plant response rating, Corn (corn (Zea mays); [25]): 0 | Plant response rating, Lambsquarters [6, 13]: 100 | Plant response rating, Lambsquarters [6, 15]: 10 | Plant response rating, Lambsquarters [6, 17]: 100 | Plant response rating, Lambsquarters [6, 16]: 98 | Plant response rating, Ryegrass, Italian [7, 18]: 80 | Plant response rating, Ryegrass, Italian [7, 19]: 100 | Plant response rating, Ryegrass, Italian [7, 20]: 85 | Plant response rating, Ryegrass, Italian [7, 21]: 100 | Plant response rating, Ryegrass, Italian [7, 22]: 90 | Plant response rating, Ryegrass, Italian [7, 23]: 65 | Plant response rating, Ryegrass, Italian [7, 24]: 90 | Plant response rating, Ryegrass, Italian [7, 25]: 100 | Plant response rating, Nutsedge, Yellow [8, 13]: 80 | Plant response rating, Nutsedge, Yellow [8, 14]: 40 | Plant response rating, Nutsedge, Yellow [8, 15]: 0 | Plant response rating, Nutsedge, Yellow [8, 16]: 80 | Plant response rating, Dayflower, VA [9, 18]: 80 | Plant response rating, Dayflower, VA [9, 19]: 35 | Plant response rating, Dayflower, VA [9, 20]: 90 | Plant response rating, Dayflower, VA [9, 22]: 90 | Plant response rating, Dayflower, VA [9, 23]: 60 | Plant response rating, Dayflower, VA [9, 24]: 35 | Plant response rating, Dayflower, VA [9, 26]: 70 | Plant response rating, Dayflower, VA [9, 25]: 90 | Plant response rating, Velvetleaf [10, 13]: 90 | Plant response rating, Velvetleaf [10, 14]: 100 | Plant response rating, Velvetleaf [10, 15]: 20 | Plant response rating, Velvetleaf [10, 16]: 100 | Plant response rating, Arrowleaf Sida [11, 18]: 60 | Plant response rating, Arrowleaf Sida [11, 19]: 20 | Plant response rating, Arrowleaf Sida [11, 20]: 70 | Plant response rating, Arrowleaf Sida [11, 22]: 75 | Plant response rating, Arrowleaf Sida [11, 23]: 65 | Plant response rating, Arrowleaf Sida [11, 24]: 0 | Plant response rating, Arrowleaf Sida [11, 26]: 65 | Plant response rating, Arrowleaf Sida [11, 25]: 80

CC(=O)Oc1c(C)nn(C)c(=O)c1-c1c(C)cc(C)c2ccccc12 [Compound 99]
Plant response rating, Soybean (soybean (Glycine max); [20]): 30 | Plant response rating, Soybean (soybean (Glycine max); [27]): 0 | Plant response rating, Soybean (soybean (Glycine max); [23]): 0 | Plant response rating, Barnyardgrass [3, 18]: 40 | Plant response rating, Barnyardgrass [3, 20]: 50 | Plant response rating, Barnyardgrass [3, 27]: 40 | Plant response rating, Barnyardgrass [3, 23]: 30 | Plant response rating, Pigweed, Palmer [4, 18]: 30 | Plant response rating, Pigweed, Palmer [4, 20]: 50 | Plant response rating, Pigweed, Palmer [4, 27]: 5 | Plant response rating, Pigweed, Palmer [4, 23]: 10 | Plant response rating, Corn (corn (Zea mays); [18]): 0 | Plant response rating, Corn (corn (Zea mays); [20]): 0 | Plant response rating, Corn (corn (Zea mays); [27]): 0 | Plant response rating, Corn (corn (Zea mays); [23]): 0 | Plant response rating, Ryegrass, Italian [7, 18]: 70 | Plant response rating, Ryegrass, Italian [7, 20]: 80 | Plant response rating, Ryegrass, Italian [7, 27]: 40 | Plant response rating, Ryegrass, Italian [7, 23]: 50 | Plant response rating, Poinsettia, Wild [12, 13]: 40 | Plant response rating, Poinsettia, Wild [12, 14]: 50 | Plant response rating, Poinsettia, Wild ([12]; 16 g ai/ha, visual, scale 0 no effect to 100 complete control): 35 | Plant response rating, Poinsettia, Wild [12, 28]: 30 | Plant response rating, Dayflower, VA [9, 18]: 70 | Plant response rating, Dayflower, VA [9, 20]: 75 | Plant response rating, Dayflower, VA [9, 27]: 40 | Plant response rating, Dayflower, VA [9, 23]: 60 | Plant response rating, Arrowleaf Sida [11, 18]: 50 | Plant response rating, Arrowleaf Sida [11, 20]: 60 | Plant response rating, Arrowleaf Sida [11, 27]: 10 | Plant response rating, Arrowleaf Sida [11, 23]: 30

Cc1nn(C)c(=O)c(-c2cccc3ccc(Br)cc23)c1O [Compound 126]
Plant response rating, Soybean (soybean (Glycine max); [20]): 40 | Plant response rating, Soybean (soybean (Glycine max); [22]): 30 | Plant response rating, Soybean (soybean (Glycine max); [23]): 10 | Plant response rating, Barnyardgrass [3, 18]: 50 | Plant response rating, Barnyardgrass [3, 20]: 40 | Plant response rating, Barnyardgrass [3, 22]: 30 | Plant response rating, Barnyardgrass [3, 23]: 40 | Plant response rating, Pigweed, Palmer [4, 18]: 50 | Plant response rating, Pigweed, Palmer [4, 20]: 50 | Plant response rating, Pigweed, Palmer [4, 22]: 80 | Plant response rating, Pigweed, Palmer [4, 23]: 40 | Plant response rating, Corn (corn (Zea mays); [18]): 10 | Plant response rating, Corn (corn (Zea mays); [20]): 5 | Plant response rating, Corn (corn (Zea mays); [22]): 5 | Plant response rating, Corn (corn (Zea mays); [23]): 0 | Plant response rating, Ryegrass, Italian [7, 18]: 80 | Plant response rating, Ryegrass, Italian [7, 20]: 85 | Plant response rating, Ryegrass, Italian [7, 22]: 90 | Plant response rating, Ryegrass, Italian [7, 23]: 70 | Plant response rating, Poinsettia, Wild [12, 13]: 20 | Plant response rating, Poinsettia, Wild [12, 14]: 50 | Plant response rating, Poinsettia, Wild ([12]; 250 g ai/ha, scale 0 to 100 (0 no effect, 100 complete control)): 50 | Plant response rating, Poinsettia, Wild [12, 28]: 30 | Plant response rating, Dayflower, VA [9, 18]: 20 | Plant response rating, Dayflower, VA [9, 20]: 50 | Plant response rating, Dayflower, VA [9, 22]: 50 | Plant response rating, Dayflower, VA [9, 23]: 0 | Plant response rating, Arrowleaf Sida [11, 18]: 80 | Plant response rating, Arrowleaf Sida [11, 20]: 100 | Plant response rating, Arrowleaf Sida [11, 22]: 85 | Plant response rating, Arrowleaf Sida [11, 23]: 75
